Earlier results in article PMC9363195, “Preclinical Pharmacokinetics, Biodistribution, and Acute Toxicity Evaluation of Caerin 1.9 Peptide in Sprague Dawley Rats” (Evidence-based Complementary and Alternative Medicine : eCAM, 2022).

Test system: TC-1 cells
Settings: cited from earlier work
Excerpt: Caerin 1.1 and Caerin 1.9 are stable.

Substance: Caerin 1.1
- prevention of development of TC-1 cells after heating (heated at 100°C for 5 minutes): equally effective
- activity after incubation (room temperature, 7 days, low pH environment (pH5.5-7)): remained active
- bioactivity after incubation in temperature-sensitive gel (temperature-sensitive gel, room temperature, 30 days): maintained a similar degree of bioactivity
